The text below walks through data of US5270342A, “Acetamide derivatives” (Imperial Chemical Industries PLC, priority 1990, dated 1993).

Structures are written as SMILES.

Assay [1] deals with aldose reductase. The assay is described as follows: reduction of sciatic nerve sorbitol in streptozotocin-diabetic rats (inhibition of aldose reductase in vivo). Details: species or system rat. As to conditions: 5 daily oral doses of 3 mg/kg. The protocol:
Rats are made diabetic (as evidenced by severe glucosuria being present) by dosing with streptozotocin. The animals are then dosed daily with the test compound for one, two or five days. The animals are then sacrificed 2-6 hours after the final dose and the eye lenses and/or sciatic nerves are removed. After a standard work-up procedure the residual sorbitol levels in each tissue are determined by gas liquid chromatography after conversion to the polytrimethylsilyl derivatives. Inhibition of aldose reductase in vivo can then be assessed by comparing the residual sorbitol levels in tissues from the dosed diabetic group of rats with those of an undosed group of diabetic rats and an undosed group of normal rats.
In a variation of the above test diabetic rats are dosed at a fixed daily oral dose for five days and then sacrificed 6 hours after the final dose and the reduction of sciatic nerve sorbitol assessed relative to that in control animals.

The target in assay [2] is T1, aldose reductase (Bos taurus, UniProt P16116).
T1 construct: partially purified aldose reductase is isolated in known manner from bovine lenses; from tissue; host or cells: bovine lenses
Briefly: inhibition in vitro of partially purified aldose reductase isolated from bovine lenses (spectrophotometric). As to conditions: bovine lens aldose reductase. It counts as biochemical. From the text:
Thus, in a standard procedure partially purified aldose reductase is isolated in known manner from bovine lenses. The percentage inhibition of this enzyme's ability in vitro to catalyse the reduction of aldoses to polyhydric alcohols, and particularly to reduce glucose to sorbitol, caused by a test compound can then be determined using standard spectrophotometric methods.

In general, IC50 refers to the point on the concentration scale where inhibition reaches its midpoint. Low readings indicate greater potency in that assay, high ones weaker potency in that assay. With `Cc1cc(NC(=O)Cc2ccccc2)cc(C)c1S(=O)(=O)C[N+](=O)[O-]` [Example 1, (2,6-dimethyl-4-[phenylacetamido]phenylsulfonyl)nitromethane], the “reduction in sciatic nerve sorbitol levels” value in assay [1] came to 83%. The IC50 in assay [2] is 118 nM.
